The text below walks through data of US20250223552A1, “METHOD FOR PREPARING T CELLS FOR ADOPTIVE T CELL THERAPY” (ST. JUDE CHILDREN'S RESEARCH HOSPITAL, INC., priority 2022, published 2025).

The structures appear in SMILES notation.

The subject of assay [1] is B16-Ova tumors. Description: B16-Ova tumor growth after adoptive transfer of inhibitor-pretreated OT-I cells. It counts as in vivo. The settings on record: OT-I cells transiently treated with inhibitor during activation, transferred into tumor-bearing mice; FIG. 2. The procedure: Naïve OT-I CD8^+ T cells were activated with anti-CD3/CD28 in the presence or absence of Arid1a inhibitor for 48 hours followed by expansion for another 4 days. Data are representative of two independent experiments. Data are as shown mean±s.e.m. **p<0.01, ***p<0.001; two-way ANOVA.
In Vivo Tumor Transplant Experiment. For B16-Ova and MC38-Ova tumors, 0.5×10^6 tumor cells were injected subcutaneously into naïve mice (7-10 weeks of age). OT-I cells (2×10^6) were transferred i.v. 7 days after tumor injection. Tumors were measured every two days.
Effective adoptive T cell therapy for cancer is critically dependent upon the use of T cells with long-term memory potential (Lugli et al. (2020) Trends Immunol. 41:17-28; Gattinoni et al. (2012) Nat. Rev. Cancer 12:671-684; Klebanoff et al. (2005) Proc. Natl. Acad. Sci. USA 102:9571-9576; Hurton et al. (2016) Proc. Natl. Acad. Sci. USA 113: E7788-E7797). Therefore, it was determined whether manipulation of CBAF can improve anti-tumor therapy. Accordingly, OT-I cells were transduced with sgRNA for Smarcd2 or control sgRNA, and the transduced cells were transferred into animals that were subsequently infected with Lm-Ova. Animals were then inoculated with B16F10 murine melanoma cells expressing Ova (B16-Ova) at memory phase (day >30 post-infection). […]

In assay [2] the test system is murine B7-H3 CAR-T cells. Description: Phenotype of B7-H3 CAR-T cells generated from T cells transiently treated with Arid1a inhibitor. It counts as cell-based. The settings on record: T cells activated 2 days with inhibitor, B7-H3 CAR transduction, additional 6 days culture. The method, then: Murine CAR-T cells were generated as described before (Haydar et al. (2021) Neuro-Oncol. 23:999-1011) with modification. Naïve CD8^+ T cells from 6-8 weeks old CD45.1^+ mice were activated with plate bound anti-CD3ε (1 μg/ml, Bio-X-Cell), anti-CD28 (2 μg/ml, Bio-X-Cell) and 50 U/ml rhIL-2 (Peprotech). On day 2 post-activation, CD8^+ T cells were transduced with retrovirus expressing B7-H3-CAR or control CAR on recombinant human fibronectin sold under the tradename RETRONECTIN® (Takara)-coated non-tissue culture treated plate in complete RPMI medium supplemented with 50 U/ml rhIL-2. At 48 hours after transduction, CAR-T cells were harvested and expanded in the presence of 10 ng/ml rhIL-15 (Peprotech) for another 3 days and then used d for in vivo and in vitro experiments.
Currently the most widely used adoptive T cell therapy employs the use of CARs. However, the use of CAR-T cells for the treatment of solid tumors remains challenging (Lim & June whether CAR-T cell (2017) Cell 168:724-740). […] The ability of B7-H3 CAR-T cells to control the growth of F420 cells was then assessed in vivo.

The test system of assay [3] is human CD8^+ T cells. Description: Persistence of inhibitor-pretreated human CD8+ T cells in NSG mice at day 30 after adoptive transfer. It is filed as in vivo. As to conditions: transient treatment during activation; recovered after 30 days; FIG. 9. The method, then:
Naïve human CD8^+ T cells were activated with anti-CD3/CD28 in the presence or absence of Arid1a inhibitor for 48 hours followed by expansion in IL-15 containing medium for another 4 days prior to adoptive transfer. Data are representative of two independent experiments. Data are shown as mean±s.e.m. *p<0.05; two-tailed unpaired Student's t-test.
For human CD8^+ T cell experiments, naïve CD8^+ T cells were activated by human CD3/CD28 T cell activator (StemCell) with or without an Arid1a inhibitor (BRD-K98645985; 1 μM; AOBIOUS or MedChemExpress) for two days and cultured in rhIL-15 (10 ng/ml, Peprotech) containing medium. Activated CD8^+ T cells (3×10^6) were then transferred to NOD scid gamma mice sold under the tradename NSG®. After 30 days, splenic cells were analyzed by flow cytometry.
The effect of the Arid1a inhibitor on the differentiation of activated, human CD8^+ T cells was also analyzed. Human naïve CD8^+ T cells from healthy donors were enriched and stimulated with anti-CD3/CD28, following by culturing in IL-15 or IL-2, two cytokines that respectively promote in vitro TMEM-like and TEFF-like cell formation (Buck et al. (2016) Cell 166:63-76; Mitchell et al. (2010) J. Immunol. 184:6719-6730). Arid1a inhibitor was added during different periods of culture. […] After 30 days, T cells were recovered and analyzed.

Take `CO[C@H]1CN(C)C(=O)c2cc(NC(=O)NC(C)C)ccc2OC[C@H](C)N(Cc2ccc(-c3ccccn3)cc2)C[C@@H]1C` [BRD-K98645985]: the “control of B16-Ova tumor growth in vivo by transferred OT-I cells” value in assay [1] was “improved the ability of OT-I cells to control”. Further, in assay [2], the “CAR expression compared with vehicle-treated controls” value is given as “no difference in CAR expression” and the “CD62L expression of CAR-T cells” value is reported as “high CD62L expression”. Further, in assay [3], the “persistence of activated human T cells in NSG mice” value is reported as “enhanced persistence” and the “propensity to express markers of TCM cells in NSG mice” value was “greater propensity to express markers of TCM cells”.
